Assay results reported in patent US10195187B2, “Oxybutynin-xanomeline transdermal therapeutic system combinations” (Chase Pharmaceuticals Corporation, priority 2015, dated 2019).
Blank lines part the entries; values can stand above or below the compound they belong to.

Experiments:
[1] = McCrery and Appell 2006; cited from earlier work
[2] = test system: Male Swiss mice; assay: T-maze continuous alternation task (T-CAT) in mice; assay type: in vivo, mouse
Text: Evaluation of Cognition with Oxybutynin and Xanomeline in the T-maze Alternation Task in Mice
The T-maze continuous alternation task (T-CAT) is useful as model for studying compounds with cognitive enhancing properties. The T-maze consists of 2 choice arms and 1 start arm mounted to a square center. Manual doors are provided to close specific arms during the force choice alternation task. Male Swiss mice (4-6 weeks old), N=10 per treatment group were used, and were pre-treated with:
Thirty minutes later mice were treated with either vehicle or one of 4 doses of xanomeline:
a dose that caused diarrhea.
Mice were randomly assigned to one of the different experimental treatment groups. Each animal was identified by its group name, cage number, series (day) of experiment, and number (1 to 10) written with permanent ink on the tail.
The T-maze apparatus is made of gray Plexiglas with a main stem (55 cm long×10 cm wide×20 cm high) and two arms (30 cm long×10 cm wide×20 cm high) positioned at 90 degree angle relative to the main stem. A start box (15 cm long×10 cm wide) is separated from the main stem by a guillotine door. Horizontal doors are also provided to close specific arms during the force choice alternation task. The experimental protocol consisted of one single session, which started with 1 “forced-choice” trial, followed by 14 “free-choice” trials. In the first “forced-choice” trial, animals were confined for 5 seconds to the start arm and then were released while either the left or the right goal arm was blocked by the horizontal door. Animals then negotiated the maze, eventually entering the open goal arm, and returned to the start position. […] The percentage of alternation over the 14 free-choice trials was determined for each mouse and was used as an index of working memory performance. […] The drug-induced improvement of memory was calculated by setting the respective response of the saline/vehicle as 100% and that of the test group as 0% reversion. […]

[3] = test system: Male Swiss mice; assay: Antagonism of xanomeline-induced diarrhea in mice by oxybutynin (fecal pellet count); assay type: in vivo, mouse; settings: oxybutynin i.p. 0.3 to 30 mg/kg, 30 min before xanomeline 30 mg/kg
Experimental: The total number of fecal pellets for each mouse was counted over time. An analysis of variance (ANOVA) was performed on the results. Fisher's Protected Least Significant Difference was used for pairwise comparisons; p values≤0.05 were considered significant. Grubbs' test (http (hypertext transfer protocol) www at graphpad.com/quickcalcs/Grubbs1.cfm) was used to detect outliers for each parameter in each experimental group. […] Mice were placed individually in cages without any bedding materials. During the experiment the number of fecal pellets was counted at different time-points as outlined below:
T0: administration of oxybutinin.
T30 min: administration of vehicle or xanomeline.
T 30 min to T 2.5 h: counting of accumulated fecal pellets excreted.
T+2.5 h to T+4.5 h: counting of accumulated fecal pellets excreted.
The total number of fecal pellets for each mouse was counted over time. An analysis of variance (ANOVA) was performed on the results. Fisher's Protected Least Significant Difference was used for pairwise comparisons. The p value≤0.05 were considered significant. Grubbs' test (http (hypertext transfer protocol) www at graphpad.com/quickcalcs/Gnibbs1.cfm) was used to detect outliers for each parameter in each experimental group.

[4] = test system: patients with Alzheimer disease; settings: cited from earlier work
[5] = test system: Male Swiss mice; assay: Dose-response to xanomeline in a mouse model of diarrhea (fecal pellet count); assay type: in vivo; settings: xanomeline i.p. 0.3 to 30 mg/kg
Text: Study 1—Establishment of the Dose-Response to Xanomeline in a Mouse Model of Diarrhea.
Male Swiss mice (4-6 weeks old), N=10 per treatment group were used, and treated intra-peritoneally (i.p.) with either vehicle (vehicle group) or increasing doses of xanomeline, a representative muscarinic agonist. Mice were randomly assigned to one of two experimental groups (vehicle; or increasing doses of xanomeline). Each animal was identified by its group name, cage number, series (day) of experiment, and number (1 to 10) written with permanent ink on the tail. Mice were placed individually in cages without any bedding materials. During the experiment the number of fecal pellets were counted at different time-points, starting one hour before the time of the administration of the test compound (T0), as outlined below:
T−1 h to T0: counting of the accumulated fecal pellets excreted.
T0: administration of the test compound.
T0 to T+2 h: counting of the accumulated fecal pellets excreted.
T+2 h to T+4 h: counting of the accumulated fecal pellets excreted.
The total number of fecal pellets for each mouse was counted over time. An analysis of variance (ANOVA) was performed on the results. […] During the experiment the number of fecal pellets was counted at different time-points as outlined below: […]

[6] = test system: muscarinic receptors; settings: oral and iontophoretic patch administration; cited from earlier work

Compound: CCN(CC)CC#CCOC(=O)C(O)(c1ccccc1)C1CCCCC1 (stereo not shown) [oxybutynin, 4-diethylaminobut-2-ynyl 2-cyclohexyl-2-hydroxy-2-phenylethanoate]
crossing of the blood brain barrier [1]: able to cross the blood brain barrier | ability to perform the T-maze test after oxybutynin pretreatment ([2]; i.p. oxybutynin 30 min before xanomeline): restored the animals' ability to perform the T-maze test | antagonism of xanomeline-induced diarrhea (fecal pellets) [3]: dose-dependently antagonized the diarrhea induced by xanomeline

diarrhea (number of fecal pellets excreted) [5]: dose-dependently causes diarrhea
Compound: CCCCCCOc1nsnc1C1=CCCN(C)C1 [xanomeline, 3-[4-(Hexyloxy)-1,2,5-thiadiazol-3-yl]-1,2,5,6-tetrahydro-1-methylpyridine]
ability to perform the T-maze test at the higher dose ([2]; i.p. xanomeline, higher dose (dose that caused diarrhea)): animals were too sick to perform the test | performance in the T-maze (percentage of alternation) ([2]; i.p. xanomeline, mice): dose-dependent increase in performance in the T-maze | cognitive and behavioral symptoms of Alzheimer disease compared to placebo ([4]; 6-month trial, Bodick et al, 1997): significantly improve cognitive and behavioral symptoms of Alzheimer disease | discontinuation rate ([4]; Alzheimer's patient population, Mirza et al. 2003): higher than 50% | side effects ([4]; patients with Alzheimer disease, Bodick et al, 1997): dose-dependent unacceptable side effects, including bradycardia, gastro-intestinal distress, excessive salivation, and sweating

Compound: NC(=O)C(c1ccccc1)(c1ccccc1)[C@@H]1CCN(CCc2ccc3c(c2)CCO3)C1 [darifenacin]
effectiveness relative to other muscarinic antagonists in combination with muscarinic agonists [6]: less effective than the other muscarinic antagonists
